Test results published in article PMC7555825, “New Insights of the Zn(II)-Induced P2 × 4R Positive Allosteric Modulation: Role of Head Receptor Domain SS2/SS3, E160 and D170” (International Journal of Molecular Sciences, 2020).
One block for each compound: values may come before it.

Columns and labels:
rP2 × 4R [1] = molecular target: T1, rP2 × 4R (Rattus norvegicus, UniProt P51577); test: Short protocol: Zn(II) potentiation of single 10 µM ATP-evoked currents before/after thiol reagent treatment, rP2 × 4R oocytes; format: cell-based; settings: for effect of alkylator plus Zn(II) treatment on Zn(II)-induced potentiation: 300 µM alkylator + 10 µM Zn(II)
T1 construct: host or cells: Xenopus laevis oocytes (intranuclear plasmid injection, pcDNA3)
T1 sequence (P51577 1-388): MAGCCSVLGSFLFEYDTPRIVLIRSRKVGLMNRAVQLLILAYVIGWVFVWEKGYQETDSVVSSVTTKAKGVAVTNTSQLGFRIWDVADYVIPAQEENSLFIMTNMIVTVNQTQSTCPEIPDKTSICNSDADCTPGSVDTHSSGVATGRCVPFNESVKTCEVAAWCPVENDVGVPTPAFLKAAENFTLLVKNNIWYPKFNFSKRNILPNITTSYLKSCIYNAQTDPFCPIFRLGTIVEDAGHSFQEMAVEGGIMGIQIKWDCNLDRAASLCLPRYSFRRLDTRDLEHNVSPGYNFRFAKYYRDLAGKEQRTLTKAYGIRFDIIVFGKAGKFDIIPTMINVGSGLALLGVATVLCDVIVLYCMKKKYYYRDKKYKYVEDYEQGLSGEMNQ
Experimental: (§1) A simpler and shorter assay to test the Zn(II) potentiation was developed to better assess the loss of Zn(II) modulation elicited by the joint co-treatment of NEM plus Zn(II). […] Ten minutes after alkylator washout, cells were treated with Zn(II) plus NEM or iodoacetamide (IA) for 5 min followed by 20 min of alkylator washout. Next, the P2 × R was tested again to examine the magnitude of the Zn(II) potentiation.
(§2) After 10 min of washout we applied 300 µM NEM, 300 µM IA, 300 µM IAc, or 300 µM DTNB for 5 min in absence or presence of Zn(II) (10 µM for rP2 × 4R and 30 µM for rP2 × 2R).
(§3) After 10 min of washout we applied 300 µM NEM + 10 µM DTT.

oocytes = test: Toxicity of DTT to oocytes (loss of holding potential); format: cell-based, Xenopus laevis; settings: DTT concentrations larger than 100 µM; holding potential lost
Experimental: Larger DTT concentrations were toxic since the oocyte holding potential was lost, a likely acute toxicity indication.
as §3

rP2 × 4R [2] = molecular target: T1, rP2 × 4R; test: Short protocol: Zn(II) potentiation of single 10 µM ATP-evoked currents before/after thiol reagent treatment, rP2 × 4R oocytes; format: cell-based; settings: 10, 30, 100 µM DTT
rP2 × 2R = molecular target: T2, rP2 × 2R (Rattus norvegicus, UniProt P49653); test: Short protocol: Zn(II) potentiation of single 10 µM ATP-evoked currents before/after thiol reagent treatment, rP2 × 2R oocytes; format: cell-based; design: expressed in transfected cells; host or cells: Xenopus laevis oocytes (intranuclear plasmid injection); settings: for effect of alkylator plus Zn(II) treatment on Zn(II) potentiation/modulation: 300 µM alkylator + 30 µM Zn(II), 5 min, 20 min washout
T2 sequence (P49653 1-472): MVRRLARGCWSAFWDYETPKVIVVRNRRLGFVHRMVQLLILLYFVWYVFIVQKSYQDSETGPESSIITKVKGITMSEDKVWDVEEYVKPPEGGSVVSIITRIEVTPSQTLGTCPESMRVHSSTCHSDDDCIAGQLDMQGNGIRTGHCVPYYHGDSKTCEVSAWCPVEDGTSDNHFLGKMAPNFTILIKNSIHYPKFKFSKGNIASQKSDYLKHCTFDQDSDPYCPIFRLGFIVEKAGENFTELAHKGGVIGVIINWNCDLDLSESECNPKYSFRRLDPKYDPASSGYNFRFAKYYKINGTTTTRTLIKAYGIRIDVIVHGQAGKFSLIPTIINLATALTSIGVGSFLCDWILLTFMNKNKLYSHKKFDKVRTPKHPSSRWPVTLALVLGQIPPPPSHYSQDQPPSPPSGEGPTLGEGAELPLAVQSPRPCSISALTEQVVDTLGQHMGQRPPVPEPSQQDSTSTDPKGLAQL
Experimental: as §1, §2

rP2 × 4R [3] = molecular target: T1, rP2 × 4R; design: method as in PMID 17962187; settings: treatment in the absence of Zn(II); cited from earlier work
rP2 × 4R [4] = molecular target: T1, rP2 × 4R; test: ATP concentration–response curves, two-electrode voltage clamp in oocytes expressing wild type rP2 × 4R; format: cell-based; settings: NEM plus Zn(II) treatment; irreversible alkylation

- fold enhancement of ATP-evoked currents after treatment (rP2 × 4R [1]; after combined 10 µM DTT plus 300 µM NEM treatment, 5 min, 20 min washout): 3.9 ± 1.2 fold
Compound: O[C@@H](CS)[C@@H](O)CS (racemic) [DTT, dithiothreitol]
- toxicity to oocytes (oocytes): toxic
- potentiation of 10 µM ATP-evoked currents by co-applied DTT (rP2 × 4R [2]): neither 10, 30, nor 100 µM DTT potentiated the ATP-evoked currents

Compound: O=C(O)c1cc(SSc2ccc([N+](=O)[O-])c(C(=O)O)c2)ccc1[N+](=O)[O-] [DTNB, 5,5’-dithiobis-(2-nitrobenzoic) acid]
- effect of alkylator plus Zn(II) treatment on Zn(II)-induced potentiation (rP2 × 4R [1]; 5 min, 20 min washout): neither of the reagents blocked

Compound: NC(=O)CI [IA, Iodoacetamide]
- ATP-evoked currents after IA plus Zn(II) treatment (rP2 × 4R [1]; 300 µM IA + 10 µM Zn(II), 5 min, 20 min washout): not increased
- effect of alkylator plus Zn(II) treatment on Zn(II)-induced potentiation (rP2 × 4R [1]; 5 min, 20 min washout): abolished the Zn(II)-induced potentiation
- effect of alkylator plus Zn(II) treatment on Zn(II) potentiation/modulation (rP2 × 2R): annulled the Zn(II) potentiation
- fold enhancement of ATP-evoked currents after treatment (rP2 × 2R; after IA + 30 µM Zn(II) treatment): 8.6 ± 3.3 fold

Compound: O=C(O)CI [IAc, Iodoacetate]
- effect of alkylator plus Zn(II) treatment on Zn(II)-induced potentiation (rP2 × 4R [1]; 5 min, 20 min washout): neither of the reagents blocked

Compound: C[N+](C)(C)CCSS(C)(=O)=O [MTSET, 2-(trimethylammonium)ethyl methanethiosulfonate]
- effect of MTSET treatment on Zn(II) potentiation (rP2 × 4R [3]): diminish the Zn(II) potentiation

Compound: CCN1C(=O)C=CC1=O [NEM, N-ethylmaleimide]
- fold increase of ATP-evoked currents after treatment (rP2 × 4R [1]; 10 µM ATP, after 300 µM NEM plus 10 µM Zn(II) treatment, vs first ATP current): 4.0 ± 1.0 fold
- effect of alkylator plus Zn(II) treatment on Zn(II)-induced potentiation (rP2 × 4R [1]; 5 min, 20 min washout): abolished the Zn(II)-induced potentiation
- time the lack of metal potentiation endured after NEM treatment (rP2 × 4R [4]): at least 1 h
- effect of alkylator plus Zn(II) treatment on Zn(II) potentiation/modulation (rP2 × 2R): Did Not Annul
- fold enhancement of ATP-evoked currents after treatment (rP2 × 2R; after NEM + 30 µM Zn(II) treatment): 3.3 ± 0.5 fold
